Laboratory results from patent US8039430B2 (University of Wollongong, priority 2005, dated 2011).
Values after ≈ are worked out from the molar mass of the structure shown. Like-named read-outs stand apart in the source and are kept apart here.

Tests used:
[1] = system: #987 E. faecium van B ST39; experiment: Antibacterial assay (MIC), VRE strain #987, Enterococossel Broth, Example 1; type: cell-based, Enterococcus faecium; settings: Enterococcus faecium; Example 1 compounds; VRE #987 E. faecium van B; 24 hrs, 37° C.; read-out: 987 (minimum inhibitory concentration)
Experimental: (§1) Antibacterial Assay Method for Staphylococcus aureus (ATCC 6538P) and Enterococcus faecium
(§2) #820 E. faecium van A ST17 #987 E. faecium van B ST39
(§3) Compounds are accurately weighed out (between approx. 1-2 mg) and dissolved in either 10% methanol/water (v/v) or 100% DMSO to a final stock concentration of 5 mg/ml.
(§4) Compounds are then diluted 1/10 in H2O to a test conc of 500 ug/ml ready for immediate use, or storage at −20° C.
(§5) Grow up an o/n starter culture of Staphylococcus aureus and each VRE strain by diluting previous culture (stored at 4° C.) 1/1000 into −50 mls Luria Broth (LB) for S. aureus or Enterococossel Broth (EB) for the VRE strains.
(§6) Incubate o/n at 37° C.+shaking. • A glycerol stock (0.6 mls bacterial culture, 0.3 mls glycerol) of each strain is kept at −80° C. if needed. Assay Set Up:
(§7) In a 96well round bottom plate add 50 ul LB/well for the S. aureus plate and add 50 ul EB/well for the VRE plates.
(§8) Add 50 ul of compound dilution (500 ug/ml test conc) to each of three top row wells (ie: tested in triplicate) and dilute 1 in 2 from the top row to the bottom row.
(§9) After the compound dilution, add to each well 50 ul of a 1/1000 dilution of the appropriate overnight bacterial culture, either S. aureus or the different VRE strains.
(§10) Plates are incubated at 37° C. on a slowly rotating plate incubator. • test concentrations are (in ug/ml) 125, 62.5, 31.25, 15.6, 7.8, 3.9, 1.9, 0.98 • final DMSO concentration in the first row of wells of the assay is 2.5% • Vancomycin is included in the assay (in triplicate) at a starting test concentration of 5 ug/ml for S. aureus and 125 ug/ml for the VRE strains Reading Results of Assay:
(§11) After incubation for 24 hrs the plates are removed and read. Inhibition of bacterial growth is indicated by lack of bacterial pellet or a clear well. In the VRE plates bacterial growth is indicated by black coloured media (EB) as well as a bacterial pellet.
(§12) Untreated control wells are included in the assay to check they all contain bacterial pellets. Uninoculated untreated control wells are included to check they all contain clear medium.
(§13) The plates are analysed for MIC and the results tabulated.

[2] = system: #449 E. faecium van B ST17; experiment: Antibacterial assay (MIC), VRE strain #449, Enterococossel Broth, Example 1; type: cell-based, Enterococcus faecium; settings: Enterococcus faecium, read-out: 449 (minimum inhibitory concentration)
Experimental: as §1
(§14) VRE strains: #243 E. faecium van B ST17 #449 E. faecium van B ST17
as §3, §4, §5, §6, §7, §8, §9, §10, §11, §12, §13

[3] = system: #243 E. faecium van B ST17; experiment: Antibacterial assay (MIC), VRE strain #243, Enterococossel Broth, Example 1; type: cell-based, Enterococcus faecium; settings: Enterococcus faecium, read-out: 243 (minimum inhibitory concentration)
Experimental: as §1, §14, §3, §4, §5, §6, §7, §8, §9, §10, §11, §12, §13

[4] = system: #820 E. faecium van A ST17; experiment: Antibacterial assay (MIC), VRE strain #820, Enterococossel Broth, Example 1; type: cell-based, Enterococcus faecium; settings: Enterococcus faecium, read-out: 820 (minimum inhibitory concentration)
Experimental: as §1, §2, §3, §4, §5, §6, §7, §8, §9, §10, §11, §12, §13

[5] = system: Staphylococcus aureus (ATCC 6538P); experiment: Antibacterial assay (MIC), Staphylococcus aureus ATCC 6538P, Luria Broth, Example 1; type: cell-based; settings: Staphylococcus aureus, ATCC6538P, read-out: Sa (minimum inhibitory concentration)
Experimental: as §1
Staphylococcus aureus (ATCC 6538P)
as §3, §4, §5, §6, §7, §8, §9, §10, §11, §12, §13

[6] = Example 1 compounds, VRE #449 E. faecium van B, 24 hrs, 37° C.
[7] = Example 1 compounds, VRE #243 E. faecium van B, 24 hrs, 37° C.
[8] = Example 1 compounds, VRE #820 E. faecium van A, 24 hrs, 37° C.
[9] = Example 1 compounds, S. aureus ATCC 6538P, 24 hrs, 37° C., range if at least two of three values fell within it

Structure (SMILES)	MIC [1] [µg/mL]	MIC [2, 6] [µg/mL]	MIC [3, 7] [µg/mL]	MIC [4, 8] [µg/mL]	MIC [5, 9] [µg/mL]	MIC ([2]; VRE, 24 h) [µg/mL]	MIC ([4]; VRE, 24 h) [µg/mL]	MIC ([5]; 24 h) [µg/mL]	MIC ([3]; VRE, 24 h) [µg/mL]
CC(C)CCOc1ccc2ccccc2c1-c1c(OCC(=O)N[C@H](CCCCN)C(=O)N[C@H](CCCNC(=N)N)C(=O)N[C@H](C(=O)OCc2ccccc2)C(C)C)ccc2ccccc12.Cl.Cl (atropisomer, axis not shown) [Compound 2]	15.7 to 62.5	15.7 to 62.5	15.7 to 62.5	15.7 to 62.5	0.99 to 15.6	–	–	–	–
CC(C)CCOc1ccc2ccccc2c1-c1c(OCC(=O)N[C@H](CCCCN)C(=O)N[C@H](CCCNC(=N)N)C(=O)N[C@@H](CC(C)C)C(=O)OCc2ccc(Cl)cc2)ccc2ccccc12.Cl.Cl (atropisomer, axis not shown) [Compound 4]	15.7 to 62.5	15.7 to 62.5	15.7 to 62.5	15.7 to 62.5	0.99 to 15.6	–	–	–	–
CC(C)CCOc1ccc2ccccc2c1-c1c(OCC(=O)N[C@H](CCCCN)C(=O)N[C@H](CCCNC(=N)N)C(=O)N[C@@H](CC(C)C)C(=O)OCc2ccc([N+](=O)[O-])cc2)ccc2ccccc12.Cl.Cl (atropisomer, axis not shown) [Compound 5]	15.7 to 62.5	15.7 to 62.5	15.7 to 62.5	15.7 to 62.5	0.99 to 15.6	–	–	–	–
CC(C)CCOc1ccc2ccccc2c1-c1c(OCC(=O)N[C@H](CCCCN)C(=O)N[C@H](CCCNC(=N)N)C(=O)N[C@@H](CC(C)C)C(=O)OCc2cccc(Cl)c2)ccc2ccccc12.Cl.Cl (atropisomer, axis not shown) [Compound 6]	15.7 to 62.5	15.7 to 62.5	15.7 to 62.5	15.7 to 62.5	0.99 to 15.6	–	–	–	–
CC(C)CCOc1ccc2ccccc2c1-c1c(OCC(=O)N[C@H](CCCCN)C(=O)N[C@H](CCCNC(=N)N)C(=O)N[C@@H](CC(C)C)C(=O)OCc2ccccc2Cl)ccc2ccccc12.Cl.Cl (atropisomer, axis not shown) [Compound 7]	15.7 to 62.5	15.7 to 62.5	15.7 to 62.5	15.7 to 62.5	0.99 to 15.6	–	–	–	–
CC(C)CCOc1ccc2ccccc2c1-c1c(OCC(=O)N[C@H](CCCCN)C(=O)N[C@H](CCCNC(=N)N)C(=O)N[C@@H](CC(C)C)C(=O)OCc2c(Cl)cccc2Cl)ccc2ccccc12.Cl.Cl (atropisomer, axis not shown) [Compound 8]	> 62.6	> 62.6	> 62.6	> 62.6	15.7 to 62.5	–	–	–	–
Cc1ccc(COC(=O)[C@H](CC(C)C)NC(=O)[C@@H](CCCNC(=N)N)NC(=O)[C@@H](CCCCN)NC(=O)COc2ccc3ccccc3c2-c2c(OCCC(C)C)ccc3ccccc23)cc1.Cl.Cl (atropisomer, axis not shown) [Compound 9]	15.7 to 62.5	15.7 to 62.5	> 62.6	15.7 to 62.5	0.99 to 15.6	–	–	–	–
CC(C)CCOc1ccc2ccccc2c1-c1c(OCC(=O)N[C@H](CCCCN)C(=O)N[C@H](CCCNC(=N)N)C(=O)N[C@@H](CC(C)C)C(=O)OCc2ccccc2)ccc2ccccc12 (atropisomer, axis not shown) [Compound 10]	15.7 to 62.5 (≈ 17.4 to 69.3 µM)	15.7 to 62.5 (≈ 17.4 to 69.3 µM)	15.7 to 62.5 (≈ 17.4 to 69.3 µM)	15.7 to 62.5 (≈ 17.4 to 69.3 µM)	0.99 to 15.6 (≈ 1.1 to 17.3 µM)	–	–	–	–
CC(C)CCOc1ccc2ccccc2c1-c1c(OCC(=O)N[C@H](CCCCN)C(=O)N[C@H](CCCNC(=N)N)C(=O)N[C@@H](CC(C)C)C(=O)OCCc2ccccc2)ccc2ccccc12.Cl.Cl (atropisomer, axis not shown) [Compound 13]	15.7 to 62.5	15.7 to 62.5	15.7 to 62.5	15.7 to 62.5	0.99 to 15.6	–	–	–	–
CC(C)CCOc1ccc2ccccc2c1-c1c(OCC(=O)N[C@H](CCCCN)C(=O)N[C@H](CCCNC(=N)N)C(=O)N[C@@H](CC(C)C)C(=O)NCc2ccccc2)ccc2ccccc12.Cl.Cl (atropisomer, axis not shown) [Compound 14]	> 62.6	15.7 to 62.5	15.7 to 62.5	15.7 to 62.5	0.99 to 15.6	–	–	–	–
CC(C)CCOc1ccc2ccccc2c1-c1c(OCC(=O)N[C@H](CCCCN)C(=O)N[C@H](CCCNC(=N)N)C(=O)N[C@@H](CC(C)C)c2ncc(Cc3ccccc3)o2)ccc2ccccc12.Cl.Cl (atropisomer, axis not shown) [Compound 18]	15.7 to 62.5	15.7 to 62.5	15.7 to 62.5	15.7 to 62.5	0.99 to 15.6	–	–	–	–
CC(C)CCOc1ccc2ccccc2c1-c1c(OCC(=O)N[C@H](CCCCN)C(=O)N[C@H](CCCNC(=N)N)C(=O)N[C@@H](Cc2ccccc2)C(=O)OCc2ccccc2)ccc2ccccc12.Cl.Cl (atropisomer, axis not shown) [Compound 19]	15.7 to 62.5	15.7 to 62.5	15.7 to 62.5	15.7 to 62.5	0.99 to 15.6	–	–	–	–
CC(C)CCOc1ccc2ccccc2c1-c1c(OCC(=O)N[C@H](CCCCN)C(=O)N[C@H](CCCNC(=N)N)C(=O)NC2(C(=O)OCc3ccccc3)CCCC2)ccc2ccccc12.Cl.Cl (atropisomer, axis not shown) [Compound 20]	15.7 to 62.5	15.7 to 62.5	15.7 to 62.5	15.7 to 62.5	0.99 to 15.6	–	–	–	–
C=CCOc1ccc2ccccc2c1-c1c(OCC(=O)N[C@H](CCCCN)C(=O)N[C@H](CCCNC(=N)N)C(=O)N[C@@H](CC(C)C)C(=O)OCc2ccccc2)ccc2ccccc12.Cl.Cl (atropisomer, axis not shown) [Compound 22]	15.7 to 62.5	15.7 to 62.5	15.7 to 62.5	15.7 to 62.5	0.99 to 15.6	–	–	–	–
C=CC[C@H](NC(=O)[C@@H](CCCNC(=N)N)NC(=O)[C@@H](CCCCN)NC(=O)COc1ccc2ccccc2c1-c1c(OCC2CCCCC2)ccc2ccccc12)C(=O)OCc1ccccc1.Cl.Cl (atropisomer, axis not shown) [Compound 23]	15.7 to 62.5	15.7 to 62.5	15.7 to 62.5	15.7 to 62.5	0.99 to 15.6	–	–	–	–
COC(=O)[C@@H](CCCNC(=N)N)NC(=O)CCCOc1ccc2ccccc2c1-c1c(OCCCC(=O)N[C@H](CCCNC(=N)N)C(=O)OC)ccc2ccccc12 [Compound 33]	–	–	–	–	–	> 62.6	> 62.6	0.99 to 15.6 (≈ 1.24 to 19.5 µM)	–
N=C(N)NCCC[C@@H](NC(=O)CCCOc1ccc2ccccc2c1-c1c(OCCCC(=O)N[C@H](CCCNC(=N)N)C(=O)OCc2ccccc2)ccc2ccccc12)C(=O)OCc1ccccc1 [Compound 38]	–	–	–	–	–	–	–	0.99 to 15.6 (≈ 1.04 to 16.4 µM)	15.7 to 62.5 (≈ 16.5 to 65.7 µM)
